Experimental data as given in US7098307B2, “Neo-tryptophan” (Mayo Foundation for Medical Education and Research, priority 1998, dated 2006).
Read-outs that look alike come from different tables or passages of the source. Square brackets hold non-standard residues; d marks the D form. Peptide text beside a SMILES is read from it. Ala(indol-4-yl) = N[C@@H](Cc1cccc2[nH]ccc12)C(=O)O; NMeR = CN[C@@H](CCCNC(=N)N)C(=O)O; Tle = CC(C)(C)[C@H](N)C(=O)O

Experiments:
[1] = Degradation in rat intestinal preparation; assay type: in vitro ADME; details: pH 7.4, 37° C., read-out: half-time, Rat Intestinal Preparation (converted)
Description: For intestinal preparations, rats were sacrificed by decapitation, and the small intestines removed. The tissue was washed with ice-cold PBS (10 mM, pH 7.4). About […] of intestinal tissue was added to about 10 mL of PBS and homogenized using a Brinkman polytron homogenizer (setting 6). After homogenization, 10 mL of PBS was added to 10 mL of the intestinal homogenate. […] The supernatant was removed and stored at −20° C. until testing. Immediately before incubation with the polypeptide, the intestinal preparation was filtered through a 0.2 μm filter. Testing procedures were similar to those for the plasma tests.
(§1) For the degradation studies, data were plotted in linear form as a semi-log plot with SigmaPlot for Windows Version 4.00. Linear regression on these plots provided the parameters used to calculate the half-time (t1/2) for degradation of each polypeptide. The correlation coefficient (R) for the linear regression was taken as a measure of the goodness-of-fit.

[2] = Degradation in human plasma (HPLC peak area); assay type: in vitro ADME; details: 25% plasma, 37° C., 0.5 mg/mL polypeptide; for half-life at 0.5 mg/mL: human, read-out: half-time, Plasma Human (converted)
From the text: as §1

[3] = Hot plate test (antinociception, % MPE) in rats; details: for induction of antinociception (hot plate): intraperitoneal administration (NT64L 1 mg/kg); for ED50 % MPE: intraperitoneal
[4] = Body temperature (hypothermia) in rats; details: for Peak BT change / time of Peak BT change: rats; for induction of hypothermia: intraperitoneal administration (NT64L 1 mg/kg)
human NTR1 [5] = biological target: T1, human NTR1 (Homo sapiens, UniProt P30989); assay: Competition binding with [3H]NT, membranes of CHO-K1 cells transfected with human NTR1
T1 construct: expressed in transfected cells; host or cells: CHO-K1
Description: (§2) CHO-K1 cells were stably transfected with nucleic acid encoding either the human NTR1 or the rat NTR1, and cultured in 150 mm petri plates with 35 mL of Dulbecco-modified Eagle's medium containing 100 μM minimal essential medium nonessential amino acids (GIBCO) supplemented with 5% (v/v) FetalClone II bovine serum product (Hyclone Labs, Logan, Utah). CHO cells (subculture 9–19) were harvested at confluency. Briefly, the medium from each plate was removed by aspiration, and the cells washed with 6 mL of 50 mM Tris-HCl (pH 7.4) and resuspended in 5–10 mL of Tris-HCl by scraping the cells with a rubber spatula. The resuspended cells were placed into a centrifuge tube and collected by centrifugation at 300× g for five minutes at 4° C. in a GPR centrifuge (Beckman Instruments, Fullerton, Calif.). The cellular pellet (in 50 mM Tris-HCl, 1 mM EDTA, pH 7.4) was stored at […] until radioligand binding was performed.
(§3) The supernatant was decanted and discarded, and the cellular pellet was resuspended in 2 mL of Tris-HCl, 1 mM EDTA (pH 7.4) followed by homogenization with a Brinkmann Polytron at setting 6 for ten seconds. Centrifugation was repeated as above and the supernatant was decanted and discarded. The resulting final cellular pellet was resuspended in 50 mM Tris-HCl, lmM EDTA, 0.1% bovine serum albumin, and 0.2 mM bacitracin.
(§4) Incubation was at 20° C. for 30 minutes. Each reaction was terminated by addition of cold 0.9% NaCl (5×1.5 mL) followed by rapid filtration through a GF/B filter strip that had been pretreated with 0.2% polyethylenimine.

rat NTR1 [6] = biological target: T2, rat NTR1 (Rattus norvegicus, UniProt P20789); assay: PI turnover ([3H]IP1) in intact CHO-K1 cells, rat NTR1; assay type: cell-based
T2 construct: expressed in transfected cells; host or cells: CHO-K1
Description: (§5) To measure PI turnover, intact CHO-K1 cells were harvested at about 80% confluency. Cells were detached from the petri plates by removal of culture medium followed by incubation of the cellular monolayer for 20 minutes at 37° C. with gentle shaking in a modified Puck's D1 solution containing 2 mM EGTA. […] Briefly, intact CHO cells were prelabeled with D-myo-[^3H]inositol (18.3 Ci/mmol) in the presence of lithium chloride (final concentration, 10 mM). […] For the experiments described herein, the stimulation time was 30 minutes, and the number of CHO cells per assay tube was 1.5×10^5.

human NTR1 [7] = biological target: T1, human NTR1; assay: PI turnover ([3H]IP1) in intact CHO-K1 cells, human NTR1; assay type: cell-based
Description: as §5

rat NTR1 [8] = biological target: T2, rat NTR1; assay: Competition binding with [3H]NT, membranes of CHO-K1 cells transfected with rat NTR1
Description: as §2, §3, §4

5HT2A receptor = 5HT2A receptor (Homo sapiens, UniProt P28223); assay: Competitive binding with [3H]ketanserin, human brain tissue; details: for competition with labeled ketanserin for binding at the 5HT2A receptor: human brain tissue
dopamine D2 receptors = biological target: T3, dopamine D2 receptors (Homo sapiens, UniProt P14416); assay: Radiolabeled competitive binding, human brain tissue, dopamine
T3 construct: Human brain tissue; from tissue; host or cells: human brain tissue

[9] = Degradation in rat plasma (HPLC peak area); assay type: in vitro ADME; details: 25% plasma, 37° C., 0.5 mg/mL polypeptide, read-out: half-time, Plasma Rat (converted)
From the text: as §1

adrenergic α1 receptors = assay: Radiolabeled competitive binding, human brain tissue, adrenergic α1
α2-adrenergic receptors = assay: Radiolabeled competitive binding, human brain tissue, adrenergic α2
Muscarinic = assay: Radiolabeled competitive binding, human brain tissue, muscarinic

Structure (SMILES)	half-life [1] [h]	half-life at 0.5 mg/mL [2] [h]	time of Peak % MPE ([3]; 1 mg/kg intraperitoneal, rats) [min]	induction of antinociception (hot plate) [3]	ED50 % MPE ([3]; @ 30 min) [mg/kg]	Peak BT change ([4]; 1 mg/kg intraperitoneal)	time of Peak BT change ([4]; 1 mg/kg intraperitoneal) [min]	induction of hypothermia [4]	ED50 BT ([4]; intraperitoneal, @ 30 min) [mg/kg]	EC50 (rat NTR1 [6]) [nM]	EC50 (human NTR1 [7]) [nM]	Kd (rat NTR1 [8]) [nM]	competition with labeled ketanserin for binding at the 5HT2A receptor (5HT2A receptor)	Kd (dopamine D2 receptors) [nM]	Peak % MPE ([3]; 1 mg/kg intraperitoneal, rats) [% @]	half-life at 0.5 mg/mL [9] [h]	Kd (human NTR1 [5]) [nM]	further results
CN[C@@H](CCCNC(=N)N)C(=O)N[C@@H](CCCCN)C(=O)N1CCC[C@H]1C(=O)N[C@@H](Cc1c[nH]c2ccccc12)C(=O)N[C@H](C(=O)N[C@@H](CC(C)C)C(=O)O)C(C)(C)C [Eisai, reference compound] (H-[NMeR]KPW[Tle]L-OH; N-terminus and C-terminus assumed)	22	460	90	did induce	0.42	−2.9 @ ° C.	60	did induce	0.26	3.1	300	–	–	–	–	–	–	ED50 % MPE ([3]; @ 90 min): 0.08 mg/kg; ED50 BT ([4]; intraperitoneal, @ 90 min): 0.12 mg/kg; peak reduction in body temperature ([4]; intraperitoneal, dose not restated): about 3 °C; weaker at the human NT receptor compared to binding affinity at the rat receptor (human NTR1 [5]; binding): ~20 fold; weaker at the human NT receptor than at the rat NT receptor, PI turnover (human NTR1 [7]): ~100 fold
CC(C)C[C@H](NC(=O)[C@@H](NC(=O)[C@H](Cc1cccc2[nH]ccc12)NC(=O)[C@@H]1CCCN1C(=O)[C@H](CCCNC(=N)N)NC(=O)[C@H](N)CCCCN)C(C)(C)C)C(=O)O [NT66L] (H-[dK]RP[Ala(indol-4-yl)][Tle]L-OH; N-terminus and C-terminus assumed)	–	170	120	did induce	0.04	−3.0 @ ° C.	240	did induce	0.45	1.9 ± 0.4	10	0.85 ± 0.09	found to compete	56000	100	350	3.7 ± 0.4	Kd (5HT2A receptor): 8700 nM; Peak % MPE ([3]; 5 mg/kg intraperitoneal, rats): 100% @; time of Peak % MPE ([3]; 5 mg/kg intraperitoneal, rats): 330 min; ED50 % MPE ([3]; @ 60 min): 0.02 mg/kg; peak % MPE value ([3]; oral, 20 mg/kg): 40%; time of Peak % MPE ([3]; oral, 20 mg/kg): 60 min; Peak BT change ([4]; 5 mg/kg intraperitoneal): −5.0 @ ° C.; time of Peak BT change ([4]; 5 mg/kg intraperitoneal): 120 min; ED50 BT ([4]; intraperitoneal, @ 60 min): 0.18 mg/kg; peak reduction in body temperature (change) ([4]; oral, 20 mg/kg): −1.4 °C; time of peak reduction in body temperature ([4]; oral, 20 mg/kg): 30 min; Kd (adrenergic α1 receptors; read-out: Kd adrenergic α1): 38000 nM
CC[C@H](C)[C@H](NC(=O)[C@H](Cc1cccc2[nH]ccc12)NC(=O)[C@@H]1CCCN1C(=O)[C@H](CCCNC(=N)N)NC(=O)[C@H](N)CCCCN)C(=O)N[C@@H](CC(C)C)C(=O)O [NT67L] (H-[dK]RP[Ala(indol-4-yl)]IL-OH; N-terminus and C-terminus assumed)	0.77	96	90	did induce	–	−1.8 @ ° C.	120	did induce	–	–	0.83	0.21 ± 0.02	found to compete	> 100000	70	130	0.61 ± 0.06	Kd (α2-adrenergic receptors): > 100000 nM; half-time, Plasma Human [2]: about 96 hours; Kd (Muscarinic): > 100000 nM; reduction in binding affinity compared to NT64L (human NTR1 [5]; NT receptor binding): about six fold lower; Kd (adrenergic α1 receptors; read-out: Kd adrenergic α1 receptors): 6900 nM
